Laboratory results reported in US7226949B2, “Compounds of use in the treatment of epilepsy, seizure, and electroconvulsive disorders” (University of Kentucky, priority 2002, dated 2007).
Read-outs that look alike come from different tables or passages of the source.

Experiments:
[1] = test system: focal seizures in hippocampal kindled rats; assay: Hippocampal kindling model; format: in vivo, Sprague-Dawley rats; conditions: hippocampal kindling model; not as effective as 4,4′-thiodianiline
Source text: Hippocampal Kindling Model
The hippocampal kindling model is an experimental seizure model used to simulate focal seizures. This model evaluates the capacity of a compound to affect both the expression and acquisition of focal seizures. In addition, kindled seizures provide a methodology for studying complex brain networks that may contribute to the spread and generalizations of seizures from a focus. The hippocampal kindling model has the advantage of being one of the only kindling models that can evaluate the temporal effects of an agent in a single animal. For this assessment, bipolar electrodes are surgically implanted in the ventral hippocampus of adult male Sprague-Dawley rats (275-300 g) under ketamine-xylazine anesthesia. Following a one-week recovery period, stage five behavioral seizures are induced by stimulating the rat 12 times per day with 50 Hz, 10 s train of 1 ms biphasic 200 μA pulses delivered every 30 min for six hours on alternating days. After five stimulus days, the animal has had 60 stimulations. A drug free control period with supramaximal stimulations is used to verify the stability of a stage five generalized seizure before the anticonvulsant activity of a drug is measured.
This screen is used to measure the capacity of the drug to prevent the expression of focal seizures. […] The animal is exposed to an initial stimulation of 20 μA; the stimulation is increased in 10 μA increments every one-two minutes until an afterdischarge is recorded. After the stability of the stage five seizure is established, the drug candidate is administered to the rats via intraperitoneal injection 15 minutes after the last control stimulation. Starting with the first dose, the anticonvulsant activity of the test agent is measured every thirty minutes for four hours. Following each stimulation, Racine seizure scores and afterdischarge durations are compared to control values to quantify the anti-convulsant activity of the agent. The Racine seizure scores vary from stage 1 to 5. The stages are characterized according to the following criteria: Stage 1—mouth and facial clonus, Stage 2—stage 1 and head nodding, Stage 3—stage 2 and forelimb clonus, Stage 4—stage 3 and rearing, Stage 5—stage 4 and repeated rearing and falling. Since a single animal is used, each rat serves as its own control.
4,4′-Thiodianiline was used in the rat hippocampal kindled rats to screen to measure its anticonvulsant potential. Doses of 12.5, 25, 50 and 100 mg/kg were evaluated at a minimum of seven time points (n=7 for each dose and each time point). […] After oral administration of the test compound stimulation, the Racine seizure scores and afterdischarge durations were measured and are shown below. The Racine seizure scores dropped from between a stage 4 and stage 5 seizure for control measurements to between a stage 1 and stage 2 seizure after treatment with 4,4′-thiodianiline.

[2] = test system: mice; assay: Minimal neurotoxicity in mice, rotorod test; conditions: for toxicity: 100 mg/kg
Procedure: In mice, the test compound is administered at doses of 30, and 100 mg/kg prior to evaluation in the toxicity screens. The mice are tested at 0.5 hours and 4 hours after intraperitoneal administration of the test compound.
Toxicity in mice weighing between 18 and 25.5 g is assessed using the standardized rotorod test [9]. For each compound tested, a minimum of 18 animals are evaluated for neurotoxicity. Control mice can maintain their equilibrium for an extended period of time when they are placed on a 6-rpm rotation rod. Neurologically impaired animals cannot maintain equilibrium for one minute in each of three successive trials.

[3] = test system: rats; assay: Minimal neurotoxicity in rats, positional sense and gait and stance tests; format: in vivo; conditions: for toxicity: 250 mg/kg
Source text: If the rat experiences neurological toxicity, it will not be able to quickly lift its leg quickly back to a normal position.
In the gait and stance test, neurotoxicity is indicated by a circular or zigzag gait after administration of the test compound. In addition, ataxia, abnormal spread of the legs, abnormal posture, tremor hyperactivity, lack of exploratory behavior, somnolence, stupor, or catalepsy can indicate neurotoxicity.

[4] = test system: 6 Hz seizures; assay: 6 Hz kindling model; format: in vivo, mice
Procedure: The 6 Hz kindling model is another experimental seizure model that effectively detects compounds with anti-seizure activity. This screen is used to evaluate the ability of a compound to prevent the acquisition of focal seizures; in particular, the capacity of a compound to prevent the development of seizures induced by a low-frequency (6 Hz), long duration (three seconds) stimulus in electrode […] is evaluated. Several of the most promising compounds were evaluated in this screen to further characterize their anti-seizure activity.
In the 6 Hz kindling test, mice are implanted with corneal electrodes. The test compound is administered (i.p.) to the animal at 0.25, 0.5, 1, 2, or 4 hours prior seizure induction. The seizure is initiated by delivering a current (32 mA at 6 Hz for three seconds) to the animal through the corneal electrodes. The resulting psychomotor seizure is usually characterized by a minimal clonic phase followed by stereotyped, automatistic behaviors. This response is analogous to the aura of human patients with partial seizures.

[5] = test system: MES-induced seizure; assay: Maximal Electroshock Seizure (MES) test in rats, oral administration; format: in vivo; conditions: for Percentage of rats in which the test compound prevented MES-induced seizure: 30 mg/kg oral; for Time to Peak Effect: MES test; for ED50: read-out: ED50 required to inhibit MES-induced seizure
Source text: (§1) The Maximal Electroshock Seizure (MES) or Maximal Seizure Pattern Test
(§2) The MES is an experimental model for generalized tonic-clonic seizures that identifies compounds that prevent seizure spread. The MES model is highly reproducible and has a consistent endpoint. An advantage of this model is that the behavioral and electrographic seizures are consistent with those observed in humans.
(§3) In the MES test, the animal receives an electrical stimulus, 0.2 seconds in duration, via corneal electrodes primed with an electrolyte solution containing an anesthetic agent. The 0.2 second stimulation is generated with 150 mA in rats and 50 mA in mice at 60 Hz. […] In rats, the compound is administered orally, while mice receive the agent via intraperitoneal injection. The test endpoint, electrogenic seizure, is manifested as hindlimb tonic extension.
A full dose-response curve was also generated in rats to determine the ED50 value (n=8 at each time point). […] The ED50 of 4,4′-thiodianiline was evaluated in both rats and mice.

[6] = test system: MES-induced seizure; assay: Maximal Electroshock Seizure (MES) test in mice, intraperitoneal administration; format: in vivo
Source text: as §1, §2, §3

[7] = 30 mg/kg i.p., 0.25 h after administration
[8] = 30 mg/kg i.p., 0.5 h after administration
[9] = 30 mg/kg i.p., 1.0 h after administration
[10] = 100 mg/kg i.p., 0.25 h after administration
[11] = 100 mg/kg i.p., 0.5 h after administration
[12] = 100 mg/kg i.p., 1.0 h after administration
[13] = 100 mg/kg i.p., 2.0 h after administration
[14] = 100 mg/kg i.p., 4.0 h after administration
[15] = rat, oral administration, at the time of peak effect, n=8
[16] = 30 mg/kg i.p., 4.0 h after administration
[17] = 300 mg/kg i.p., 0.5 h after administration
[18] = 300 mg/kg i.p., 4.0 h after administration

Structure (SMILES) | Percentage of mice in which the test compound prevented seizure in the 6 Hz test [4, 7] [%] | Percentage of mice in which the test compound prevented seizure in the 6 Hz test [4, 8] [%] | Percentage of mice in which the test compound prevented seizure in the 6 Hz test [4, 9] [%] | Percentage of mice in which the test compound prevented seizure in the 6 Hz test [4, 10] [%] | Percentage of mice in which the test compound prevented seizure in the 6 Hz test [4, 11] [%] | Percentage of mice in which the test compound prevented seizure in the 6 Hz test [4, 12] [%] | Percentage of mice in which the test compound prevented seizure in the 6 Hz test [4, 13] [%] | Percentage of mice in which the test compound prevented seizure in the 6 Hz test [4, 14] [%] | Percentage of rats in which the test compound prevented MES-induced seizure ([5]; 0.25 h after administration) [%] | Percentage of rats in which the test compound prevented MES-induced seizure ([5]; 0.5 h after administration) [%] | Percentage of rats in which the test compound prevented MES-induced seizure ([5]; 1.0 h after administration) [%] | Percentage of rats in which the test compound prevented MES-induced seizure ([5]; 2.0 h after administration) [%] | Percentage of rats in which the test compound prevented MES-induced seizure ([5]; 4.0 h after administration) [%] | Time to Peak Effect ([5]; rat, oral administration) [h] | Percentage of mice in which the test compound prevented MES-induced seizure [6, 8] [%] | Percentage of mice in which the test compound prevented MES-induced seizure [6, 16] [%] | Percentage of mice in which the test compound prevented MES-induced seizure [6, 11] [%] | Percentage of mice in which the test compound prevented MES-induced seizure [6, 14] [%] | Percentage of mice in which the test compound prevented MES-induced seizure [6, 17] [%] | Percentage of mice in which the test compound prevented MES-induced seizure [6, 18] [%] | further results
Nc1ccc(NC(=O)c2ccc(N)cc2)cc1 [4,4′-Diaminobenzanalide] |  |  |  |  |  |  |  |  |  |  |  |  |  |  |  |  |  |  |  |  | expression of fully kindled seizures [1]: had the capacity to block the expression of fully kindled seizures
Nc1ccc(C(=O)c2ccc(N)cc2)cc1 [4,4′-diaminobenzophenone] | 0 | 0 | 0 | 100 | 100 | 100 | 0 | 0 | 50 | 100 | 75 | 100 | 75 | 1 | 0 | 0 | 100 | 100 | 100 | 100 | neurotoxicity ([2]; doses below 100 mg/kg): showed no neurotoxicity; acute neurotoxic effects ([3]; 0.25 to 24 hours after oral administration, doses as high as 500 mg/kg): None of the rats tested at any timepoints; ED50 [5, 15]: 7.15 mg/kg
Nc1ccc(Oc2ccc(N)cc2)cc1 [4,4′-diaminodiphenyl ether] | 0 | 50 | 25 | 100 | 100 | 100 | 100 | 0 | 100 | 100 | 75 | 75 | 100 | 6 | 0 | 0 | 100 | 100 | 100 | 100 | toxicity [2]: no significant toxicity; toxicity [3]: no significant toxicity; expression of fully kindled seizures [1]: had the capacity to block the expression of fully kindled seizures; Percentage of mice in which the test compound prevented seizure in the 6 Hz test ([4]; 30 mg/kg i.p., 2.0 h after administration): 25%; ED50 required to inhibit MES-induced seizure [5, 15]: 5.24 ± 4.67 mg/kg
Nc1ccc(Cc2ccc(N)cc2)cc1 [4,4′-methylenedianiline] | 0 | 0 | 0 | 100 | 100 | 100 | 0 | 0 | 100 | 75 | 92 | 100 | 50 | 1 | 0 | 0 | 100 | 0 | 100 | 100 | toxicity [2]: no significant toxicity; toxicity [3]: no significant toxicity; ED50 ([5]; Rattus norvegicus, po): 10.6 ± 5.88 mg/kg
Nc1ccc(Nc2cccc(N)c2)cc1 [(3-aminophenyl)-(4-aminophenyl) amine] |  |  |  |  |  |  |  |  | 0 | 50 | 75 | 50 | 50 | 2 | 0 | 0 | 100 | 100 | 100 | 100 | toxicity [2]: no significant toxicity; toxicity [3]: no significant toxicity; ED50 [5, 15]: 31.7 ± 24.4 mg/kg
